According to patent publication US20150337013A1, “NOVEL ANTIBACTERIAL AGENTS FOR THE TREATMENT OF GRAM POSITIVE INFECTIONS” (priority 2008, published 2015):
Where two headings read alike, the source gives them in different places.

Tests used:
[1] = test system: Enterococcus faecium EFM.14 (ATCC 6569); format: cell-based
Procedure: (§1) Compounds according to Formula I were tested for antimicrobial activity against a panel of organisms. Aerobic organisms, Staphylococcus aureus, Enterococcus faecalis and E. faecium, were tested by broth microdilution according to Clinical and Laboratory Standards Institute (CLSI) document M7-A7 (Clinical and Laboratory Standards Institute. Methods for Dilution Antimicrobial Susceptibility Tests for Bacteria that Grow Aerobically; Approved Standard—Seventh Edition. CLSI document M7-A7 [ISBN 1-56238-587-9]. Clinical and Laboratory Standards Institute, 940 West Valley Road, Suite 1400, Wayne, Pa. 19087-1898 USA, 2006) with modifications as described below. Mueller Hinton Broth (MHBc) was supplemented with 50 mg/L calcium (equivalent to human physiological levels of calcium) and assay plates were incubated 18-20 hours at 37° C. with aeration (200 rpm).
(§2) In all cases the final concentration of dimethyl sulfoxide incubated with cells is less than or equal to 1%. For minimum inhibitory concentration (MIC) calculations, 2-fold dilutions of compounds were added to wells of a microtiter plate containing 5×10^5 bacteria in a final volume of 100 μL of media. Following incubation, (18-20 hours at 37° C. with aeration at 200 rpm) growth was confirmed visually by placing plates over a viewing apparatus (stand with a mirror underneath) and then the optical density (OD600) was measured using a SpectraMax 340PC^384 plate reader. Growth was defined as turbidity that could be detected with the naked eye or achieving minimum OD600of 0.1. MIC values (in μg/mL) were defined as the lowest concentration producing no visible turbidity.

[2] = test system: Staphylococcus aureus SAU.278, Daptomycin resistant mutant (D10); format: cell-based; settings: MHBc with 50 mg/L calcium, 18-20 hours at 37° C.
Procedure: as §1, §2

[3] = test system: Enterococcus faecalis EFS.312, Daptomycin resistant mutant (EFA); format: cell-based; settings: MHBc with 50 mg/L calcium, 18-20 hours at 37° C.
Procedure: as §1, §2

[4] = test system: Staphylococcus aureus SAU.42 (ATCC 29213); format: cell-based
Procedure: as §1, §2

[5] = test system: Enterococcus faecalis EFS.201 (ATCC 49452); format: cell-based
Procedure: as §1, §2

[6] = test system: Staphylococcus aureus SAU.399 (ATCC 43300), Methicillin and Oxacillin Resistant; format: cell-based
Procedure: as §1, §2

[7] = test system: Enterococcus faecium EFM.384, Daptomycin resistant mutant (14-A); format: cell-based; settings: MHBc with 50 mg/L calcium, 18-20 hours at 37° C.
Procedure: as §1, §2

[8] = test system: Clostridium difficile
[9] = MHBc with 50 mg/L calcium, 18-20 hours at 37° C.

CCCCCCCCCC(C)NC(=O)N[C@@H](Cc1c[nH]c2ccccc12)C(=O)N[C@H](CC(N)=O)C(=O)N[C@@H](CC(=O)O)C(=O)N[C@@H]1C(=O)NCC(=O)N[C@@H](CCCN)C(=O)N[C@@H](CC(=O)O)C(=O)N[C@H](C)C(=O)N[C@@H](CC(=O)O)C(=O)NCC(=O)N[C@H](CO)C(=O)N[C@@H]([C@H](C)CC(=O)O)C(=O)N[C@@H](CC(=O)c2ccccc2N)C(=O)O[C@@H]1C (single isomer, unassigned) [14 isomer II]
Efm14 MIC ([1]; ATCC 6569): 0.25 µg/mL
Sa278 MIC [2]: 1 µg/mL
Efs312 MIC [3]: 16 µg/mL
Sa42 MIC ([4]; ATCC 29213): 0.25 µg/mL
Efs201 MIC ([5]; ATCC 49452): 0.5 µg/mL
Sa399 MIC ([6]; ATCC 43300): 0.25 µg/mL
Efm384 MIC [7]: 8 µg/mL
C. diff MIC90 [8]: 2 µg/mL

CCCCCCCCCC(C)NC(=O)N[C@@H](Cc1c[nH]c2ccccc12)C(=O)N[C@H](CC(N)=O)C(=O)N[C@@H](CC(=O)O)C(=O)N[C@@H]1C(=O)NCC(=O)N[C@@H](CCCN)C(=O)N[C@@H](CC(=O)O)C(=O)N[C@H](C)C(=O)N[C@@H](CC(=O)O)C(=O)NCC(=O)N[C@H](CO)C(=O)N[C@@H]([C@H](C)CC(=O)O)C(=O)N[C@@H](CC(=O)c2ccccc2N)C(=O)O[C@@H]1C (single isomer, unassigned) [14 isomer I]
Efm14 MIC ([1]; ATCC 6569): 0.5 µg/mL
Sa278 MIC [2]: 1 µg/mL
Efs312 MIC [3]: 32 µg/mL
Sa42 MIC ([4]; ATCC 29213): 0.25 µg/mL
Efs201 MIC ([5]; ATCC 49452): 1 µg/mL
Sa399 MIC ([6]; ATCC 43300): 0.5 µg/mL
Efm384 MIC [7]: 8 µg/mL
C. diff MIC90 [8]: 1.0 µg/mL

CCCCCCCCC1CC1C(=O)N[C@@H](Cc1c[nH]c2ccccc12)C(=O)N[C@H](CC(N)=O)C(=O)N[C@@H](CC(=O)O)C(=O)N[C@@H]1C(=O)NCC(=O)N[C@@H](CCCN)C(=O)N[C@@H](CC(=O)O)C(=O)N[C@H](C)C(=O)N[C@@H](CC(=O)O)C(=O)NCC(=O)N[C@H](CO)C(=O)N[C@@H]([C@H](C)CC(=O)O)C(=O)N[C@@H](CC(=O)c2ccccc2N)C(=O)O[C@@H]1C (single isomer, unassigned) [27 isomer II]
Efm14 MIC ([1]; ATCC 6569): 1 µg/mL
Sa278 MIC [2]: 2 µg/mL
Efs312 MIC [3]: 32 µg/mL
Sa42 MIC ([4]; ATCC 29213): 1 µg/mL
Efs201 MIC ([5]; ATCC 49452): 0.5 µg/mL
Sa399 MIC ([6]; ATCC 43300): 0.5 µg/mL
Efm384 MIC [7]: 4 µg/mL
C. diff MIC90 [8]: 1 µg/mL

CCCCCCCCC1CC1C(=O)N[C@@H](Cc1c[nH]c2ccccc12)C(=O)N[C@H](CC(N)=O)C(=O)N[C@@H](CC(=O)O)C(=O)N[C@@H]1C(=O)NCC(=O)N[C@@H](CCCN)C(=O)N[C@@H](CC(=O)O)C(=O)N[C@H](C)C(=O)N[C@@H](CC(=O)O)C(=O)NCC(=O)N[C@H](CO)C(=O)N[C@@H]([C@H](C)CC(=O)O)C(=O)N[C@@H](CC(=O)c2ccccc2N)C(=O)O[C@@H]1C (single isomer, unassigned) [27 isomer I]
Efm14 MIC ([1]; ATCC 6569): 4 µg/mL
Sa278 MIC [2]: 8 µg/mL
Efs312 MIC [3]: 32 µg/mL
Sa42 MIC ([4]; ATCC 29213): 2 µg/mL
Efs201 MIC ([5]; ATCC 49452): 2 µg/mL
Sa399 MIC ([6]; ATCC 43300): 2 µg/mL
Efm384 MIC [7]: 32 µg/mL
C. diff MIC90 [8]: 2 µg/mL

CC(C)Cc1ccc(C(C)C(=O)N[C@@H](Cc2c[nH]c3ccccc23)C(=O)N[C@H](CC(N)=O)C(=O)N[C@@H](CC(=O)O)C(=O)N[C@@H]2C(=O)NCC(=O)N[C@@H](CCCN)C(=O)N[C@@H](CC(=O)O)C(=O)N[C@H](C)C(=O)N[C@@H](CC(=O)O)C(=O)NCC(=O)N[C@H](CO)C(=O)N[C@@H]([C@H](C)CC(=O)O)C(=O)N[C@@H](CC(=O)c3ccccc3N)C(=O)O[C@@H]2C)cc1 (single isomer, unassigned) [45 isomer II]
Efm14 MIC ([1]; ATCC 6569): 32 µg/mL
Sa278 MIC [2]: >32 µg/mL
Efs312 MIC [3]: >32 µg/mL
Sa42 MIC ([4]; ATCC 29213): 4 µg/mL
Efs201 MIC ([5]; ATCC 49452): 32 µg/mL
Sa399 MIC ([6]; ATCC 43300): 4 µg/mL
Efm384 MIC [7]: >32 µg/mL
C. diff MIC90 [8]: 8 µg/mL

CC(C)Cc1ccc(C(C)C(=O)N[C@@H](Cc2c[nH]c3ccccc23)C(=O)N[C@H](CC(N)=O)C(=O)N[C@@H](CC(=O)O)C(=O)N[C@@H]2C(=O)NCC(=O)N[C@@H](CCCN)C(=O)N[C@@H](CC(=O)O)C(=O)N[C@H](C)C(=O)N[C@@H](CC(=O)O)C(=O)NCC(=O)N[C@H](CO)C(=O)N[C@@H]([C@H](C)CC(=O)O)C(=O)N[C@@H](CC(=O)c3ccccc3N)C(=O)O[C@@H]2C)cc1 (single isomer, unassigned) [45 isomer I]
Efm14 MIC ([1]; ATCC 6569): >32 µg/mL
Sa278 MIC [2]: >32 µg/mL
Efs312 MIC [3]: >32 µg/mL
Sa42 MIC ([4]; ATCC 29213): 8 µg/mL
Efs201 MIC ([5]; ATCC 49452): >32 µg/mL
Sa399 MIC ([6]; ATCC 43300): 8 µg/mL
Efm384 MIC [7]: >32 µg/mL
C. diff MIC90 [8]: 32 µg/mL

CCCC1CCC(c2ccc(C(=O)N[C@@H](Cc3c[nH]c4ccccc34)C(=O)N[C@H](CC(N)=O)C(=O)N[C@@H](CC(=O)O)C(=O)N[C@@H]3C(=O)NCC(=O)N[C@@H](CCCN)C(=O)N[C@@H](CC(=O)O)C(=O)N[C@H](C)C(=O)N[C@@H](CC(=O)O)C(=O)NCC(=O)N[C@H](CO)C(=O)N[C@@H]([C@H](C)CC(=O)O)C(=O)N[C@@H](CC(=O)c4ccccc4N)C(=O)O[C@@H]3C)cc2)CC1 (single isomer, unassigned) [53 isomer II]
Efm14 MIC ([1]; ATCC 6569): 1 µg/mL
Sa278 MIC [2]: 2 µg/mL
Efs312 MIC [3]: 4 µg/mL
Sa42 MIC ([4]; ATCC 29213): 0.5 µg/mL
Efs201 MIC ([5]; ATCC 49452): 1 µg/mL
Sa399 MIC ([6]; ATCC 43300): 1 µg/mL
Efm384 MIC [7]: 4 µg/mL
C. diff MIC90 [8]: 1 µg/mL

CCCCCCC1CCC(c2ccc(C(=O)N[C@@H](Cc3c[nH]c4ccccc34)C(=O)N[C@H](CC(N)=O)C(=O)N[C@@H](CC(=O)O)C(=O)N[C@@H]3C(=O)NCC(=O)N[C@@H](CCCN)C(=O)N[C@@H](CC(=O)O)C(=O)N[C@H](C)C(=O)N[C@@H](CC(=O)O)C(=O)NCC(=O)N[C@H](CO)C(=O)N[C@@H]([C@H](C)CC(=O)O)C(=O)N[C@@H](CC(=O)c4ccccc4N)C(=O)O[C@@H]3C)cc2)CC1 (single isomer, unassigned) [54 isomer II]
Efm14 MIC ([1]; ATCC 6569): 1 µg/mL
Sa42 MIC ([4]; ATCC 29213): 1 µg/mL
Efs201 MIC ([5]; ATCC 49452): 2 µg/mL
Sa399 MIC ([6]; ATCC 43300): 1 µg/mL
C. diff MIC90 [8]: 4 µg/mL

CCCCCCOc1ccc(/C=C/C(=O)N[C@@H](Cc2c[nH]c3ccccc23)C(=O)N[C@H](CC(N)=O)C(=O)N[C@@H](CC(=O)O)C(=O)N[C@@H]2C(=O)NCC(=O)N[C@@H](CCCN)C(=O)N[C@@H](CC(=O)O)C(=O)N[C@H](C)C(=O)N[C@@H](CC(=O)O)C(=O)NCC(=O)N[C@H](CO)C(=O)N[C@@H]([C@H](C)CC(=O)O)C(=O)N[C@@H](CC(=O)c3ccccc3N)C(=O)O[C@@H]2C)cc1 [Compound 42]
Efm14 MIC [1, 9]: 2 µg/mL
Sa278 MIC [2]: 4 µg/mL
Sa42 MIC [4, 9]: 0.5 µg/mL
Efs201 MIC [5, 9]: 1 µg/mL
Sa399 MIC [6, 9]: 1 µg/mL
Efm384 MIC [7]: 8 µg/mL
C. diff MIC90 [8]: 0.5 µg/mL

CCCCOc1ccc(-c2ccc(C(=O)N[C@@H](Cc3c[nH]c4ccccc34)C(=O)N[C@H](CC(N)=O)C(=O)N[C@@H](CC(=O)O)C(=O)N[C@@H]3C(=O)NCC(=O)N[C@@H](CCCN)C(=O)N[C@@H](CC(=O)O)C(=O)N[C@H](C)C(=O)N[C@@H](CC(=O)O)C(=O)NCC(=O)N[C@H](CO)C(=O)N[C@@H]([C@H](C)CC(=O)O)C(=O)N[C@@H](CC(=O)c4ccccc4N)C(=O)O[C@@H]3C)cc2)cc1 [Compound 60]
Efm14 MIC ([1]; ATCC 6569): 4 µg/mL
Sa278 MIC [2]: 8 µg/mL
Efs312 MIC [3]: >32 µg/mL
Sa42 MIC ([4]; ATCC 29213): 1 µg/mL
Efs201 MIC ([5]; ATCC 49452): 4 µg/mL
Sa399 MIC ([6]; ATCC 43300): 4 µg/mL
Efm384 MIC [7]: 16 µg/mL

C[C@H](CC(=O)O)[C@@H]1NC(=O)[C@@H](CO)NC(=O)CNC(=O)[C@H](CC(=O)O)NC(=O)[C@@H](C)NC(=O)[C@H](CC(=O)O)NC(=O)[C@H](CCCN)NC(=O)CNC(=O)[C@@H](NC(=O)[C@H](CC(=O)O)NC(=O)[C@@H](CC(N)=O)NC(=O)[C@H](Cc2c[nH]c3ccccc23)NC(=O)Cc2ccc(-c3ccc(Cl)cc3)cc2)[C@@H](C)OC(=O)[C@H](CC(=O)c2ccccc2N)NC1=O [Compound 65]
Efm14 MIC ([1]; ATCC 6569): 8 µg/mL
Sa278 MIC [2]: 16 µg/mL
Efs312 MIC [3]: >32 µg/mL
Sa42 MIC ([4]; ATCC 29213): 2 µg/mL
Efs201 MIC ([5]; ATCC 49452): 8 µg/mL
Sa399 MIC ([6]; ATCC 43300): 2 µg/mL
Efm384 MIC [7]: >32 µg/mL
